Measurements published in patent US8410112B2, “Compounds useful as inhibitors of ATR kinase” (Vertex Pharmaceuticals Incorporated, priority 2008, dated 2013).

target: T1, full-length ATR (Homo sapiens, UniProt Q13535); assay: ATR Inhibition Assay (radioactive-phosphate incorporation); format: biochemical; conditions: Ki(app); 5 nM full-length ATR, 10 μM ATP, 800 μM target peptide, 25° C.
T1 construct: in the presence of 5 nM full-length ATR
Procedure, shortened: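 After a 10-min pre-incubation of compound with 5 nM enzyme at 25 °C, ATP was added to start the reaction (final 10 μM [γ-33P]ATP, 800 μM peptide; Tris/HCl pH 7.5, MgCl2, DTT), which ran 24 h. Incorporated 33P was captured on phosphocellulose filters, and Ki(app) was fitted by non-linear regression.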

T1 sequence (Q13535 whole entry): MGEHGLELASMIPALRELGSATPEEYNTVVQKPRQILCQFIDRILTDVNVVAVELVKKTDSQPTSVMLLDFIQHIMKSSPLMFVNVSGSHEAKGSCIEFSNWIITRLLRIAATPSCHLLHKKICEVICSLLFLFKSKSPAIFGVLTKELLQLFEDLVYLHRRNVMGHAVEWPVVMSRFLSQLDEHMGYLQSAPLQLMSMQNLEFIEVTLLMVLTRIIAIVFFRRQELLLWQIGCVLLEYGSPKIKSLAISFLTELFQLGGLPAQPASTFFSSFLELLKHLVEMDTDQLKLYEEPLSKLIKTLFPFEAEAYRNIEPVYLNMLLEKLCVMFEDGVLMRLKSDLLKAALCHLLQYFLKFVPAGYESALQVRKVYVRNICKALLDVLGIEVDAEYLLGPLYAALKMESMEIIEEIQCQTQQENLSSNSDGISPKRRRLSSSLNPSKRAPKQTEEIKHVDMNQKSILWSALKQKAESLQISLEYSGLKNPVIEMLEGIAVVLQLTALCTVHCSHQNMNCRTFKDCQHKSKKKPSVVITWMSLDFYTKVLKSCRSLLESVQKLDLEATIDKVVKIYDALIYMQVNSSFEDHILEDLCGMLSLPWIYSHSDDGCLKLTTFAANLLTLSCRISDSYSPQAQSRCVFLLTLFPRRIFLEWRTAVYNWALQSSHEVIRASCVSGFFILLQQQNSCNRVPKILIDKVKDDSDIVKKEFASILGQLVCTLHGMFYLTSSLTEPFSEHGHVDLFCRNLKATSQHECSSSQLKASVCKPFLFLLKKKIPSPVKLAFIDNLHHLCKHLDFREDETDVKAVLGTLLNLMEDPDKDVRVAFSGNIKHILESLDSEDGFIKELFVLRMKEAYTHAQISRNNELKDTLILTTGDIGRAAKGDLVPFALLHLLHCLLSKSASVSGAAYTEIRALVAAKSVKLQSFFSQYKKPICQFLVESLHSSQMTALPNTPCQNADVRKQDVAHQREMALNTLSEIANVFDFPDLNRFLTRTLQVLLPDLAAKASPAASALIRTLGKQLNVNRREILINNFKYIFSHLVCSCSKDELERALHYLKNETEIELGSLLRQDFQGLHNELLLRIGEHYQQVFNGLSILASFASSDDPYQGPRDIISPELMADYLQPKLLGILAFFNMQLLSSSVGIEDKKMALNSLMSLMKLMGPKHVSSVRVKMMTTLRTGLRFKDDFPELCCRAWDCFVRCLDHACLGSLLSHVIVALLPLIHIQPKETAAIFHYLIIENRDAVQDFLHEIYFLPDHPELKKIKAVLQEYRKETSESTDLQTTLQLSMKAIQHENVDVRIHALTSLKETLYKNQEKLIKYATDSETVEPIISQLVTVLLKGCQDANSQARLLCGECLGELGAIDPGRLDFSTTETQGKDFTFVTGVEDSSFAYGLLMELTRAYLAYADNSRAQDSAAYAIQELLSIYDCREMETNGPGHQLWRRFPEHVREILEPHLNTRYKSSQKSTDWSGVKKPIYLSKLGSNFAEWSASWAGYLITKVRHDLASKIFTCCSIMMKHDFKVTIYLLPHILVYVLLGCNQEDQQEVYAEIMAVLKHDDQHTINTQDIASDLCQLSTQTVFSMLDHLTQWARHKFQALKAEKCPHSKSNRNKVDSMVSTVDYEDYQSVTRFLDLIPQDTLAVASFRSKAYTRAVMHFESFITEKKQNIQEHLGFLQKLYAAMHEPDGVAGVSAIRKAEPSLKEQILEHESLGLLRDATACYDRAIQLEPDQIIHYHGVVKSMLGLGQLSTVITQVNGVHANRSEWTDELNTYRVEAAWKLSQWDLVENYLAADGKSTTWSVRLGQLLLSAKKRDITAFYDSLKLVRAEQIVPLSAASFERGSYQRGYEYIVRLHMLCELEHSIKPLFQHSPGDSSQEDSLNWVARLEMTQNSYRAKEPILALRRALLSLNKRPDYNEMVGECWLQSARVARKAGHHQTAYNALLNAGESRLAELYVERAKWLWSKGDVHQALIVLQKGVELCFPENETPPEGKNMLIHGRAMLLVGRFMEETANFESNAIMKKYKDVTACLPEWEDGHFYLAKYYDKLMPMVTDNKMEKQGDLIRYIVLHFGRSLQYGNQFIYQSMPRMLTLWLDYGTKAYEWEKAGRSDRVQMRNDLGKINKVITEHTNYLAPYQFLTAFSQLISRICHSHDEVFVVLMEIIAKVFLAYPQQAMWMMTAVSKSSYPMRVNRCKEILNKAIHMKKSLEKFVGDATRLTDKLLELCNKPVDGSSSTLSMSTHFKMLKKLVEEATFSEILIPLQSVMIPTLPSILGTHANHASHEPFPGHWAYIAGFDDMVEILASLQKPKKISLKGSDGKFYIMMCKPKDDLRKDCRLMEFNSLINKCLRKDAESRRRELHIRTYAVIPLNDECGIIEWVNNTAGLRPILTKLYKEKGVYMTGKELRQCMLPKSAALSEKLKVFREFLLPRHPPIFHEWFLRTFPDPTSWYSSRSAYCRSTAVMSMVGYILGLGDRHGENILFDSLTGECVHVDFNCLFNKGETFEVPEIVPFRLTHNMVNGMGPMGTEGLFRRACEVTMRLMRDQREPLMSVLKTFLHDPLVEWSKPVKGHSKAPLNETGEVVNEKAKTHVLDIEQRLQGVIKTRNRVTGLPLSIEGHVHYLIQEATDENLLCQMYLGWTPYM

SMILES	Ki
CCS(=O)(=O)N1CCN(c2cnc(N)c(-c3ncc(-c4ccccc4)o3)n2)CC1 [Compound I-36, 5-(4-(ethylsulfonyl)piperazin-1-yl)-3-(5-phenyloxazol-2-yl)pyrazin-2-amine]	0.1 to 1 µM
Cc1ccc2nc(-c3nc(N4CCN(c5nccs5)CC4)cnc3N)[nH]c2c1 [Compound I-46, 3-(6-methyl-1H-benzo[d]imidazol-2-yl)-5-(4-(thiazol-2-yl)piperazin-1-yl)pyrazin-2-amine]	0.1 to 1 µM
CNCc1ccc(-c2nnc(-c3nc(N4CCC5(CCN(C)C5=O)CC4)cnc3N)o2)cc1 [Compound I-344, 8-[5-Amino-6-[5-[4-(methylaminomethyl)phenyl]-1,3,4-oxadiazol-2-yl]pyrazin-2-yl]-2-methyl-2,8-diazaspiro[4.5]decan-1-one]	< 0.1 µM
Nc1ncc(C2=CCNCC2)nc1-c1nnc(-c2ccccc2)o1 [Compound I-41, 3-(5-phenyl-1,3,4-oxadiazol-2-yl)-5-(1,2,3,6-tetrahydropyridin-4-yl)pyrazin-2-amine]	0.1 to 1 µM
CNCc1ccc(-c2nnc(-c3nc(N4C[C@@H]5[C@H](C4)[C@@H]5NS(=O)(=O)C(C)C)cnc3N)o2)cc1 [Compound I-370, N-[(1S,5R)-3-[5-Amino-6-[5-[4-(methylaminomethyl)phenyl]-1,3,4-oxadiazol-2-yl]pyrazin-2-yl]-3-azabicyclo[3.1.0]hexan-6-yl]propane-2-sulfonamide]	0.1 to 1 µM
CCS(=O)(=O)N1CCN(c2cnc(N)c(-c3nnc(-c4sccc4C)o3)n2)CC1 [Compound I-294, 5-(4-ethylsulfonylpiperazin-1-yl)-3-[5-(3-methyl-2-thienyl)-1,3,4-oxadiazol-2-yl]pyrazin-2-amine]	< 0.1 µM
CCC(=O)N1CCN(c2cnc(N)c(-c3nnc(-c4ccc(CNC)cc4)o3)n2)CC12CC2 [Compound I-363, 1-(7-(5-Amino-6-(5-(4-((methylamino)methyl)phenyl)-1,3,4-oxadiazol-2-yl)pyrazin-2-yl)-4,7-diazaspiro[2.5]octan-4-yl)propan-1-one]	0.1 to 1 µM
CCOC(=O)N1CC=C(c2cnc(N)c(-c3nc4ccccc4[nH]3)n2)CC1 [Compound I-250, ethyl 4-(5-amino-6-(1H-benzo[d]imidazol-2-yl)pyrazin-2-yl)-5,6-dihydropyridine-1(2H)-carboxylate]	0.1 to 1 µM
CCS(=O)(=O)N1CC=C(c2cnc(N)c(-c3nc4cc(C(C)(C)C)ccc4[nH]3)n2)CC1 [Compound I-156, 3-(5-tert-butyl-1H-benzo[d]imidazol-2-yl)-5-(1-(ethylsulfonyl)-1,2,3,6-tetrahydropyridin-4-yl)pyrazin-2-amine]	1 to 10 µM
CCS(=O)(=O)N1CC=C(c2cnc(N)c(C(=O)Nc3ccccn3)n2)CC1 [Compound I-171, 3-amino-6-(1-(ethylsulfonyl)-1,2,3,6-tetrahydropyridin-4-yl)-N-(pyridin-2-yl)pyrazine-2-carboxamide]	0.1 to 1 µM
CCS(=O)(=O)N1CC=C(c2cnc(N)c(C(=O)Nc3cc(C)nn3C)n2)CC1 [Compound I-168, 3-amino-N-(1,3-dimethyl-1H-pyrazol-5-yl)-6-(1-(ethylsulfonyl)-1,2,3,6-tetrahydropyridin-4-yl)pyrazine-2-carboxamide]	0.1 to 1 µM
NCCS(=O)(=O)N1CC=C(c2cnc(N)c(-c3nc4ccccc4[nH]3)n2)CC1 [Compound I-313, 5-(1-(2-Aminoethylsulfonyl)-1,2,3,6-tetrahydropyridin-4-yl)-3-(1H-benzo[d]imidazol-2-yl)pyrazin-2-amine]	0.1 to 1 µM
CN1CCN(C(=O)N2CC=C(c3cnc(N)c(-c4nc5ccccc5[nH]4)n3)CC2)CC1 [Compound I-161, (4-(5-amino-6-(1H-benzo[d]imidazol-2-yl)pyrazin-2-yl)-5,6-dihydropyridin-1(2H)-yl)(4-methylpiperazin-1-yl)methanone]	0.1 to 1 µM
Nc1ncc(C2=CCN(C(=O)COc3ccccc3)CC2)nc1-c1nc2ccccc2[nH]1 [Compound I-137, 1-(4-(5-amino-6-(1H-benzo[d]imidazol-2-yl)pyrazin-2-yl)-5,6-dihydropyridin-1(2H)-yl)-2-phenoxyethanone]	0.1 to 1 µM
CNC(=O)C1CCN(c2cnc(N)c(-c3nc4ccc(C)cc4[nH]3)n2)CC1 [Compound I-13, 1-(5-amino-6-(6-methyl-1H-benzo[d]imidazol-2-yl)pyrazin-2-yl)-N-methylpiperidine-4-carboxamide]	1 to 10 µM
Nc1ncc(C2=CCN(C(=O)C3CCC3)CC2)nc1-c1nnc(-c2ccccc2)o1 [Compound I-128, (4-(5-amino-6-(5-phenyl-1,3,4-oxadiazol-2-yl)pyrazin-2-yl)-5,6-dihydropyridin-1(2H)-yl)(cyclobutyl)methanone]	< 0.1 µM
Nc1ncc(N2CC[C@H](NC(=O)C3CCCC3)C2)nc1-c1nc2ccccc2[nH]1 [Compound I-204, (S)-N-(1-(5-amino-6-(1H-benzo[d]imidazol-2-yl)pyrazin-2-yl)pyrrolidin-3-yl)cyclopentanecarboxamide]	0.1 to 1 µM
CNCCC(=O)N1CC=C(c2cnc(N)c(-c3nc4ccccc4[nH]3)n2)CC1 [Compound I-346, 1-(4-(5-Amino-6-(1H-benzo[d]imidazol-2-yl)pyrazin-2-yl)-5,6-dihydropyridin-1(2H)-yl)-3-(methylamino)propan-1-one]	0.1 to 1 µM

The remaining lines, values ahead:

Ki	SMILES
0.1 to 1 µM	Nc1ncc(C2=CCN(C(=O)C3CCOCC3)CC2)nc1-c1nc2ccccc2[nH]1 [Compound I-235, (4-(5-amino-6-(1H-benzo[d]imidazol-2-yl)pyrazin-2-yl)-5,6-dihydropyridin-1(2H)-yl)(tetrahydro-2H-pyran-4-yl)methanone]
1 to 10 µM	Cc1ccc2nc(-c3nc(N4CCNC(=O)CC4)cnc3N)[nH]c2c1 [Compound I-65, 1-(5-amino-6-(6-methyl-1H-benzo[d]imidazol-2-yl)pyrazin-2-yl)-1,4-diazepan-5-one]
1 to 10 µM	Cc1ccc2nc(-c3nc(N4CCS(=O)(=O)CC4)cnc3N)[nH]c2c1 [Compound I-21, 5-(1,1-dioxo-1,4-thiazinan-4-yl)-3-(6-methyl-1H-benzimidazol-2-yl)pyrazin-2-amine]
< 0.1 µM	Nc1ncc(C2=CCN(C(=O)c3cccnc3)CC2)nc1-c1nnc(-c2ccccc2)o1 [Compound I-129, (4-(5-amino-6-(5-phenyl-1,3,4-oxadiazol-2-yl)pyrazin-2-yl)-5,6-dihydropyridin-1(2H)-yl)(pyridin-3-yl)methanone]
0.1 to 1 µM	Nc1ncc(N2CCN(S(=O)(=O)Cc3ccccc3)CC2)nc1-c1nc2ccccc2[nH]1 [Compound I-106, 3-(1H-benzo[d]imidazol-2-yl)-5-(4-(benzylsulfonyl)piperazin-1-yl)pyrazin-2-amine]
1 to 10 µM	Nc1ncc(N2CCN(C(=O)OCc3ccccc3)CC2)nc1-c1nnc(-c2ccccc2)o1 [Compound I-255, benzyl 4-(5-amino-6-(5-phenyl-1,3,4-oxadiazol-2-yl)pyrazin-2-yl)piperazine-1-carboxylate]
0.1 to 1 µM	Nc1ncc(N2CCN(S(=O)(=O)c3ccccc3)CC2)nc1-c1nc2ccccc2[nH]1 [Compound I-110, 3-(1H-benzo[d]imidazol-2-yl)-5-(4-(phenylsulfonyl)piperazin-1-yl)pyrazin-2-amine]
< 0.1 µM	COCC(=O)N1CC=C(c2cnc(N)c(-c3nc4ccccc4[nH]3)n2)CC1 [Compound I-138, 1-(4-(5-amino-6-(1H-benzo[d]imidazol-2-yl)pyrazin-2-yl)-5,6-dihydropyridin-1(2H)-yl)-2-methoxyethanone]
1 to 10 µM	Cc1ccc2nc(-c3nc(N4CCn5cnnc5C4)cnc3N)[nH]c2c1 [Compound I-281, 5-(5,6-dihydro-[1,2,4]triazolo[4,3-a]pyrazin-7(8H)-yl)-3-(6-methyl-1H-benzo[d]imidazol-2-yl)pyrazin-2-amine]
< 0.1 µM	Nc1ncc(-n2ccccc2=O)nc1-c1nc2ccccc2[nH]1 [Compound I-310, 1-(5-amino-6-(1H-benzo[d]imidazol-2-yl)pyrazin-2-yl)pyridin-2(1H)-one]
0.1 to 1 µM	CCS(=O)(=O)N1CCN(c2cnc(N)c(-c3nc4ccccc4n3-c3ccccc3)n2)CC1 [Compound I-308, 5-(4-ethylsulfonylpiperazin-1-yl)-3-(1-phenylbenzimidazol-2-yl)pyrazin-2-amine]
< 0.1 µM	CCS(=O)(=O)N1CC=C(c2cnc(N)c(-c3nc4cc(C)ccc4[nH]3)n2)CC1 [Compound I-157, 5-(1-(ethylsulfonyl)-1,2,3,6-tetrahydropyridin-4-yl)-3-(5-methyl-1H-benzo[d]imidazol-2-yl)pyrazin-2-amine]
0.1 to 1 µM	Nc1ncc(N2CCN(C(=O)C3CCCCC3)CC2)nc1C(=O)Nc1ccccn1 [Compound I-256, 3-amino-6-(4-(cyclohexanecarbonyl)piperazin-1-yl)-N-(pyridin-2-yl)pyrazine-2-carboxamide]
0.1 to 1 µM	Nc1ncc(N2CCN(c3nccs3)CC2)nc1-c1nc2ccccc2[nH]1 [Compound I-277]
0.1 to 1 µM	Nc1ncc(N2CCN(S(=O)(=O)c3ccsc3)CC2)nc1-c1nc2ccccc2[nH]1 [Compound I-80, 3-(1H-benzo[d]imidazol-2-yl)-5-(4-(thiophen-3-ylsulfonyl)piperazin-1-yl)pyrazin-2-amine]
0.1 to 1 µM	CCS(=O)(=O)N1CCN(c2cnc(N)c(-c3nnc(Nc4ccccc4)o3)n2)CC1 [Compound I-69, 5-(3-amino-6-(4-(ethylsulfonyl)piperazin-1-yl)pyrazin-2-yl)-N-phenyl-1,3,4-oxadiazol-2-amine]
1 to 10 µM	CNC(=O)[C@H]1CCN(c2cnc(N)c(-c3nc4ccc(C)cc4[nH]3)n2)C1 [Compound I-70, (S)-1-(5-amino-6-(6-methyl-1H-benzo[d]imidazol-2-yl)pyrazin-2-yl)-N-methylpyrrolidine-3-carboxamide]
0.1 to 1 µM	Cc1ccc2nc(-c3nc(N4CCN(c5ccccc5)CC4)cnc3N)[nH]c2c1 [Compound I-30, 3-(6-methyl-1H-benzo[d]imidazol-2-yl)-5-(4-phenylpiperazin-1-yl)pyrazin-2-amine]
